According to patent publication US8648090B2, “Indole alkaloid derivatives having opioid receptor agonistic effect, and therapeutic compositions and methods relating to same” (National University Corporation Chiba University, priority 2007, dated 2014):
Like-named read-outs stand apart in the source and are kept apart here.

Tests used:
mice [1] = assay: Tail-flick test, analgesic effect after oral administration; type: in vivo; settings: for ED50: Mus musculus; for ED50 / ED50 analgesic effect (tail-flick): mice, (95% confidence limits); for times more potent analgesic effect than morphine: mouse tail-flick test
Description: Analgesia was quantified using the percentage of maximum possible effect (% MPE) and calculated as: % MP=[(test latency−pre-drug latency)/(cut-off time−pre-drug latency)]×100. A cut-off time of 10 s was used to prevent tissue damage. Each value represents mean±S.E.M. of data obtained from 7 to 9 mice.
(§1) Mice respond to a focused heat stimulus by flicking or moving their tail from the path of the stimulus, thereby exposing a photocell located in the tail-flick analgesia meter (Ugo Basile Tail-flick Unit 7360, Ugo Basile, Comerio, Italy) immediately below the tail. The reaction time is automatically recorded. Prior to treatment with drugs, vehicle, or saline, the nociceptive threshold was measured three times, and the mean of the reaction time was used as the pre-drug latency for each mouse. A cut-off time of 10 s was used to prevent tissue damage. Analgesia was quantified using the percentage of maximum possible effect (% MPE) and calculated as: % MPE=[(test latency−pre-drug latency)/(cut-off time−pre-drug latency)]×100.
(§2) The data are expressed as the mean±S.E.M. Statistical analyses were performed with two-tailed Student's t-test for comparison of two groups, and by a one-way analysis of variance followed by a Bonferroni multiple comparison test for comparison of more than two groups. A P value <0.05 was considered statistically significant.

[2] = Gastrointestinal transit (charcoal meal), constipating effect after oral administration; type: in vivo; settings: mouse, in vivo; oral administration, mice; (95% confidence limits); read-out: ED50 inhibitory effect on gastrointestinal transit (GIT), constipating ED50
Procedure: (§3) The inhibition of gastrointestinal transit (%) was calculated as: Inhibition of gastrointestinal transit (%)=[(saline or vehicle GIT−drug GIT)/(saline or vehicle GIT)]×100. Each value represents mean±S.E.M. of 7 or 8 mice.
(§4) Mice were fasted, with water available ad libitum, for 18 h before the experiments. […] Thirty minutes after administration of the charcoal meal, the animal was sacrificed by cervical dislocation, and the small intestine from the pylorus to the ileocecum was carefully removed. Both the length of the small intestine from the pylorus to the ileocecum and the farthest distance to which the charcoal meal had traveled were measured. For each animal, the gastrointestinal transit (GIT) was calculated as the percentage of distance traveled by the charcoal meal relative to the total length of the small intestine. The inhibition of gastrointestinal transit (%) was calculated as: Inhibition of gastrointestinal transit (%)=[(saline or vehicle GIT−drug GIT)/(saline or vehicle GIT)]×100.
as §2

guinea pig ileum = assay: Twitch contraction induced by electrical stimulation in guinea pig isolated ileum (Magnus assay); settings: for Emax / EC50: Cavia porcellus; for EC50: read-out: pD2 value (−log M) (converted); for Relative Potency (%): against morphine (100); for Inhibitory activity (%): maximum inhibition as percentage of that by morphine, intrinsic activity on opioid receptors; for pD2 value (−log M): negative logarithm of EC50, mean ± SEM of five or six animals; for Maximum inhibition (%): response at plateau, twitch contraction regarded as 100%
Procedure: The opioid agonistic effect was evaluated in an experiment involving twitch contraction induced by electrical stimulation of guinea pig ileum.
The guinea-pig ileum was dissected and placed in Krebs-Henseleit solution (in mM: NaCl, 112.08; KCl, 5.90; CaCl2, 1.97; MgCl2, 1.18; NaH2PO4, 1.22; NaHCO3, 25.00, and glucose, 11.49). The ileum was placed under 1 g tension in a 5 ml organ bath containing the nutrient solution. The bath was maintained at 37° C. and continuously bubbled with a mixture of 95% O2 and 5% CO2. Tissues were stimulated by a platinum needle-ring (the ring was placed 20 mm above the base of a 5 mm long needle) electrode. After equilibration, the ileum was transmurally stimulated with monophasic pulses (0.2 Hz and 0.1 ms duration) by a stimulator (SEN-7203, Nihon Kohden, Tokyo, Japan). Contractions were isotonically recorded by using a displacement transducer (NEC Type 45347, San-ei Instruments Ltd., Tokyo, Japan). The effects of drug treatments on the twitch contractions evoked by transmural stimulation elicited through the ring electrodes were examined. The height of the twitch response to transmural stimulation was measured before and after the drug challenge. The responses were expressed as % inhibition of the twitch response to the transmural stimulation before the drug challenge.
Male albino guinea pigs (Japan SLC) weighing 320-550 g were used. Animals were housed in a temperature-controlled room at 24° C. with lights on from 07:00-19:00 and had free access to food and water. The guinea-pig ileum was dissected and placed in Krebs-Henseleit solution (in mM: NaCl, 112.08; KCl, 5.90; CaCl2, 1.97; MgCl2, 1.18; NaH2PO4, 1.22; NaHCO3, 25.00, and glucose, 11.49). The ileum was set up under 1 g of tension in 5 mL of an organ bath containing the nutrient solution. The bath was maintained at 37° C. and continuously bubbled with a gas mixture of 95% O2 and 5% CO2. At the start of each experiment, the maximum response to acetylcholine (3 μM) was obtained for each tissue to check its suitability. Tissues were stimulated through platinum needle-ring (a ring was placed 20 mm above the base of a needle 5 mm in length) electrodes using square wave pulses of supramaximal voltage. The ileum was transmurally stimulated with monophasic pulses (0.2 Hz) at 0.3 ms duration by a stimulator (SEN-7203, Nihon Kohden, Tokyo, Japan). Contractions were isotonically recorded with a displacement transducer (NEC, San-ei Instruments Ltd., Type 45347), a DC strain amplifier (San-ei 6M92), and a DC recorder (Hitachi, Mod 056, Tokyo, Japan). All concentration-response curves were constructed in a cumulative manner. The height of the twitch response to transmural stimulation was measured before and after drug challenge. The twitch response remaining after each sample addition was determined by dividing the height after its addition by the height before addition multiplied by 100. To obtain the percentage inhibition, this value was subtracted from 100. […] To investigate the involvement of opioid receptors in the inhibitory effect of the samples, the antagonistic effect of the opioid receptor antagonist naloxone was examined. The inhibitory effects of samples on electrically stimulated contraction were regarded as opioid activities when the antagonistic effect of naloxone was observed.

mice [3] = assay: Gastrointestinal transit (charcoal meal), constipating effect after oral administration; type: in vivo; settings: oral, GIT ED50 versus tail-flick ED50
Procedure: as §3, §4, §2

mice [4] = assay: Effects of opioid receptor antagonists on analgesia induced by s.c. administration, mouse tail-flick test; type: in vivo; settings: s.c. compound; for effect of naloxone on analgesic effect: non-selective opioid antagonist naloxone, data not shown; for effect of naltrindole on analgesic effect: δ-opioid receptor selective antagonist NTI 3 mg/kg; for effect of nor-binaltorphimine on analgesic effect: κ-opioid receptor selective antagonist norBNI 20 mg/kg; for effect of β-funaltrexamine on analgesic effect: μ-opioid receptor selective antagonist β-FNA 40 mg/kg
Procedure: The analgesic effects were determined in the mouse tail-flick test after s.c. administration of the following antagonists: β-funaltrexamine (β-FNA, 40 mg/kg), naltrindole (NTI, 3 mg/kg), and nor-binaltorphimine (norBNI, 20 mg/kg). Measurements were performed 15 min after s.c. administration of compound 11, compound 26 and compound 27. […] Each value represents mean±S.E.M. of 8 or 9 mice.
as §1

[5] = read-out: Inhibitory activity (%)
[6] = read-out: Maximum inhibition (%)

SMILES | Emax (guinea pig ileum; [5]) [%] | Emax (guinea pig ileum; [6]) [%] | EC50 (guinea pig ileum) [nM] | Relative Potency (%) (guinea pig ileum) | further results
C[C@@]12Nc3ccccc3[C@]1(C)OCCO2 |  |  |  |  | melting point: 79 to 81 °C
c1ccc2c(c1)N[C@]13CCCC[C@]21OCCO3 |  |  |  |  | melting point: 156 to 157 °C
CC[C@@H]1CN2CC[C@@]3(O)C(=Nc4cccc(OC)c43)[C@@H]2C[C@@H]1/C(=C\OC)C(=O)OC [Compound 1, 7-hydroxymitragynine, reference compound] | 104 | 90.8 ± 3.4 | 16.6 | 426 | ED50 (mice [1]): 4.43 mg/kg; times more potent analgesic effect than morphine (mice [1]): 14 times; ED50 [2]: 7.5 mg/kg
CC[C@@H]1CN2CCc3c([nH]c4cccc(OC)c34)[C@@H]2C[C@@H]1/C(=C\OC)C(=O)OC [Compound 2, Mitragynine, reference compound] | 83 | 72 ± 5 | 316 | 22 | 
CC[C@@H]1CN2CC[C@@]34OCCO[C@@]3(Nc3cccc(OC)c34)[C@@H]2C[C@@H]1/C(=C\OC)C(=O)OC [Compound 3] | 40 | 35 ± 11 | 20 | 354 | 
CC[C@@H]1CN2CC[C@@]34OCCO[C@@]3(Nc3ccc(F)c(OC)c34)[C@@H]2C[C@@H]1/C(=C\OC)C(=O)OC [Compound 11] | 96 | 83.4 ± 3.2 | 3.98 | 1778 | ED50 (mice [1]): 2.84 mg/kg; times more potent analgesic effect than morphine (mice [1]): 22 times; ED50 [2]: 11.1 mg/kg; constipating ED50 times larger than analgesic ED50 (mice [3]): 4 times; effect of naloxone on analgesic effect (mice [4]): completely blocked; effect of naltrindole on analgesic effect (mice [4]): ineffective; effect of nor-binaltorphimine on analgesic effect (mice [4]): markedly inhibited; effect of β-funaltrexamine on analgesic effect (mice [4]): markedly inhibited
CC[C@@H]1CN2CC[C@@]34OCCO[C@@]3(Nc3ccc(Cl)c(OC)c34)[C@@H]2C[C@@H]1/C(=C\OC)C(=O)OC [Compound 12a] |  |  |  | 288 | Inhibitory activity (%) (guinea pig ileum): 55%; pD2 value (−log M) (guinea pig ileum): 7.61 ± 0.17 −log M; Maximum inhibition (%) (guinea pig ileum): 48.1 ± 9.3%
CC[C@@H]1CN2CC[C@@]34OCCO[C@@]3(Nc3ccc([N+](=O)[O-])c(OC)c34)[C@@H]2C[C@@H]1/C(=C\OC)C(=O)OC [Compound 14a] |  |  |  | 537 | Inhibitory activity (%) (guinea pig ileum): 75%; pD2 value (−log M) (guinea pig ileum): 7.88 ± 0.18 −log M; Maximum inhibition (%) (guinea pig ileum): 65.0 ± 4.3%
CC[C@@H]1CN2CC[C@@]3(O)C(=Nc4ccc(F)c(OC)c43)[C@@H]2C[C@@H]1/C(=C\OC)C(=O)OC [Compound 22, 7-Hydroxy-10-fluoromitragynine] | 95 | 82.5 ± 1.8 | 13.5 | 524 | 
CC[C@@H]1CN2CC[C@@]3(O)C(=Nc4ccc(Cl)c(OC)c43)[C@@H]2C[C@@H]1/C(=C\OC)C(=O)OC [Compound 23, 7-Hydroxy-10-chloromitragynine] | 86 | 74.8 ± 3 | 29.5 | 239 | 
CC[C@@H]1CN2CC[C@@]3(O)C(=Nc4ccc(Br)c(OC)c43)[C@@H]2C[C@@H]1/C(=C\OC)C(=O)OC [Compound 24, 7-Hydroxy-10-bromomitragynine] | 71 | 61.7 ± 6.2 | 35.5 | 199 | 
CCC1CN2CCC3(O)c4c(ccc(F)c4OC)NC3C2CC1C(=COC)C(=O)OC (centres unmarked) [Compound 27] |  |  |  | 4571 | ED50 analgesic effect (tail-flick) (mice [1]): 0.263 (0.165-0.420) mg/kg; ED50 analgesic effect (tail-flick) (mice [1]; listed as compound 27): 0.26 mg/kg; times more potent analgesic effect than morphine (mice [1]): 240 times; effect of naloxone on analgesic effect (mice [4]): completely blocked; effect of naltrindole on analgesic effect (mice [4]): moderately inhibited; effect of nor-binaltorphimine on analgesic effect (mice [4]): had no effect; effect of β-funaltrexamine on analgesic effect (mice [4]): markedly inhibited; Inhibitory activity (%) (guinea pig ileum): 102%; pD2 value (−log M) (guinea pig ileum): 8.81 ± 0.09 −log M; Maximum inhibition (%) (guinea pig ileum): 89.0 ± 2.3%
CN1CC[C@]23c4c5ccc(O)c4O[C@H]2[C@@H](O)C=C[C@H]3[C@H]1C5 [Morphine, reference compound] | 100 | 87.2 ± 1.8 |  |  | ED50 (mice [1]): 63 mg/kg; ED50 [2]: 11.7 mg/kg; constipating ED50 times smaller than analgesic ED50 (mice [3]): 5 times
